# ChEMBL document CHEMBL3351479, “Novel acylureidoindolin-2-one derivatives as dual Aurora B/FLT3 inhibitors for the treatment of acute myeloid leukemia” (Eur J Med Chem, 2014)
# The source made the active and inactive calls. The rule behind the calls is not given here.
# What was measured:
# [1] = molecular target: Cytochrome P450 1A2 (Homo sapiens) (UniProt P05177); assay: Inhibition of CYP1A2 (unknown origin) using 3-cyano-7-ethoxycoumarin substrate
# [2] = Ratio of solubility in PBS to solubility in DMSO; format: physicochemical
# MOLM-13 [3] = assay: Cytotoxicity against human MOLM13 cells assessed as cell viability after 48 hrs by MTT assay; format: functional, cell-based; details: MOLM-13, 48 h
# [4] = Cmax in BALB/c mouse at 10 mg/kg, po; format: ADME, organism-based; set-up: dose 10 mg/kg, route oral; details: in vivo
# [5] = Half life in BALB/c mouse at 2 mg/kg, iv; format: ADME, organism-based; set-up: dose 2 mg/kg, route intravenous; details: in vivo
# [6] = Therapeutic index, ratio of LD50 for BALB/c AnN.Cg-Foxnlnu/CrlNarl mouse to ED50 for antitumor activity against human MOLM13 cells xenografted in BALB/c AnN.Cg-Foxnlnu/CrlNarl mouse; format: cell-based, MOLM-13; details: in vivo, read-out: Ratio LD50/ED50
# [7] = molecular target: Voltage-gated inwardly rectifying potassium channel KCNH2 (Homo sapiens, UniProt Q12809); assay: Inhibition of human ERG channel after 3 hrs by fluorescence assay
# [8] = molecular target: Mast/stem cell growth factor receptor Kit (Homo sapiens, UniProt P10721); assay: Inhibition of c-Kit (unknown origin)
# [9] = AUC (0 to 24 hrs) in BALB/c mouse at 10 mg/kg, po; format: ADME, organism-based; set-up: time < 24 hr, dose 10 mg/kg, route oral; details: plasma
# Vero = assay: Cytotoxicity against african green monkey Vero cells at 10 uM after 48 hrs by MTT assay; format: cell-based; details: chlorocebus sabaeus
# [10] = Half life in BALB/c mouse at 10 mg/kg, po; format: ADME, organism-based; set-up: dose 10 mg/kg, route oral; details: in vivo
# [11] = Permeability coefficient of the compound at pH 7.4 by PAMPA-GIT assay; format: ADME; details: read-out: Peff
# THP-1 [12] = assay: Cytotoxicity against human THP1 cells assessed as cell viability after 48 hrs by MTT assay; format: functional, cell-based; details: Homo sapiens, THP-1, 48 h
# [13] = AUC (0 to 24 hrs) in BALB/c mouse at 2 mg/kg, iv; format: ADME, organism-based; set-up: time < 24 hr, dose 2 mg/kg, route intravenous; details: plasma
# Cytochrome P450 2D6 = Cytochrome P450 2D6 (Homo sapiens, UniProt P10635); assay: Inhibition of CYP2D6 (unknown origin) using 3-cyano-7-ethoxycoumarin substrate; format: ADME
# [14] = Volume of distribution at steady state in BALB/c mouse at 2 mg/kg, iv; format: ADME, organism-based; set-up: dose 2 mg/kg, route intravenous; details: in vivo, read-out: Vdss
# MOLM-13 [15] = assay: Antitumor activity against human MOLM13 cells xenografted in BALB/c AnN.Cg-Foxnlnu/CrlNarl mouse assessed as reduction in tumor growth at 10 mg/kg, ip once daily for 16 days; format: functional; details: MOLM-13, ip, 384 h, route intraperitoneal
# [16] = Tmax in BALB/c mouse at 10 mg/kg, po; format: ADME, organism-based; set-up: dose 10 mg/kg, route oral; details: in vivo
# Cytochrome P450 2C19 = Cytochrome P450 2C19 (Homo sapiens, UniProt P33261); assay: Inhibition of CYP2C19 (unknown origin) using 3-cyano-7-ethoxycoumarin substrate; format: ADME
# [17] = Cmax in BALB/c mouse at 2 mg/kg, iv; format: ADME, organism-based; set-up: dose 2 mg/kg, route intravenous; details: in vivo
# [18] = Cytotoxicity against human HL60 cells assessed as cell viability after 48 hrs by MTT assay; format: functional, cell-based; details: HL-60, 48 h
# [19] = Clearance in BALB/c mouse at 2 mg/kg, iv; format: ADME, organism-based; set-up: dose 2 mg/kg, route intravenous; details: in vivo
# [20] = Oral bioavailability in BALB/c mouse at 10 mg/kg; format: ADME, organism-based; details: in vivo
# [21] = Tmax in BALB/c mouse at 2 mg/kg, iv; format: ADME, organism-based; set-up: dose 2 mg/kg, route intravenous; details: in vivo
# Cytochrome P450 3A4 = Cytochrome P450 3A4 (Homo sapiens, UniProt P08684); assay: Inhibition of CYP3A4 (unknown origin) using Vivid OOMR substrate; format: ADME
# MV4-11 = assay: Cytotoxicity against human MV4-11 cells assessed as cell viability after 48 hrs by MTT assay; format: functional, cell-based; details: Homo sapiens, MV4-11, 48 h
# Cytochrome P450 2C9 = Cytochrome P450 2C9 (Homo sapiens, UniProt P11712); assay: Inhibition of CYP2C9 (unknown origin) using Vivid OOMR substrate; format: ADME
# Cytochrome P450 2C9, sequence (P11712 whole entry): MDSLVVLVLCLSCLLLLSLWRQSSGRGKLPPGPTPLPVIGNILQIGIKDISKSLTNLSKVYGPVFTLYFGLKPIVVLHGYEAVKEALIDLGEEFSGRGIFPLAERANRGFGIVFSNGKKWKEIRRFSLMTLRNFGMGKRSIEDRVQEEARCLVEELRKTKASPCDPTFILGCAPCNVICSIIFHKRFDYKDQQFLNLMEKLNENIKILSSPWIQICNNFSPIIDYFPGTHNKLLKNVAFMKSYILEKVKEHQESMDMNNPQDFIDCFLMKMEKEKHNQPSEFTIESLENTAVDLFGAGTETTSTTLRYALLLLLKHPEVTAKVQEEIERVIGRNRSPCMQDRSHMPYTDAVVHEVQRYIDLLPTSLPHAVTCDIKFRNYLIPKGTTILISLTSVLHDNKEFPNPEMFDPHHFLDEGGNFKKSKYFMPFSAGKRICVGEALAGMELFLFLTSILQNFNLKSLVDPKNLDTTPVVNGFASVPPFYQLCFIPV
# Mus musculus = assay: Toxicity in BALB/c AnN.Cg-Foxnlnu/CrlNarl mouse xenografted with human MOLM13 cells assessed as body weight loss at 10 mg/kg, ip administered qd for 16 days; format: organism-based, MOLM-13; set-up: dose 10 mg/kg, route intraperitoneal; details: in vivo, 384 h
# [22] = Toxicity in BALB/c AnN.Cg-Foxnlnu/CrlNarl mouse xenografted with human MOLM13 cells at 10 mg/kg, ip administered qd for 16 days; format: organism-based, MOLM-13; set-up: dose 10 mg/kg, route intraperitoneal; details: in vivo
# MOLM-13 [23] = assay: Antitumor activity against human MOLM13 cells xenografted in BALB/cAnN.Cg-Foxnlnu/CrlNarl mouse assessed as reduction in tumor mass at 10 mg/kg, ip once daily for 16 days; format: functional; details: MOLM-13, ip, 384 h, route intraperitoneal
# [24] = molecular target: T1, Tyrosine-protein kinase Lck (Homo sapiens, UniProt P06239); assay: Inhibition of Lck (unknown origin)
# Target sequence in this assay (P06239 whole entry): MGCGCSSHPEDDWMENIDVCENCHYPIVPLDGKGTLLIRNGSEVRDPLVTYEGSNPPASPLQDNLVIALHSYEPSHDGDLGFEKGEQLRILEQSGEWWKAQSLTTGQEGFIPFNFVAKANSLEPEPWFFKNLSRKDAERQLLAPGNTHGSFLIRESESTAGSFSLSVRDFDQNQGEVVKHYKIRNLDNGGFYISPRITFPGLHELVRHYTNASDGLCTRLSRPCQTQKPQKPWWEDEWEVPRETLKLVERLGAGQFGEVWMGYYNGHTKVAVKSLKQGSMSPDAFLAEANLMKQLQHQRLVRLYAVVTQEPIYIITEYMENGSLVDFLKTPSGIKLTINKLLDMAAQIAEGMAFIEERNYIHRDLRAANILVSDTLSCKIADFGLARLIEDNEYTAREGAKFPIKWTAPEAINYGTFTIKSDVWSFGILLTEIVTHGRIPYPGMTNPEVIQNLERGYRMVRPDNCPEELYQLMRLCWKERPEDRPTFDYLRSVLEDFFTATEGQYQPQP
# MOLM-13 [25] = assay: Induction of apoptosis in human MOLM13 cells assessed as caspase 8 activation after 24 hrs; format: functional, cell-based
# MOLM-13 [26] = assay: Induction of apoptosis in human MOLM13 cells assessed as caspase 3 activation after 24 hrs; format: functional, cell-based
# [27] = molecular target: Platelet-derived growth factor receptor beta (Homo sapiens) (UniProt P09619); assay: Inhibition of PDGFRbeta (unknown origin) at 1 uM
# Platelet-derived growth factor receptor beta (Homo sapiens), sequence (P09619 whole entry): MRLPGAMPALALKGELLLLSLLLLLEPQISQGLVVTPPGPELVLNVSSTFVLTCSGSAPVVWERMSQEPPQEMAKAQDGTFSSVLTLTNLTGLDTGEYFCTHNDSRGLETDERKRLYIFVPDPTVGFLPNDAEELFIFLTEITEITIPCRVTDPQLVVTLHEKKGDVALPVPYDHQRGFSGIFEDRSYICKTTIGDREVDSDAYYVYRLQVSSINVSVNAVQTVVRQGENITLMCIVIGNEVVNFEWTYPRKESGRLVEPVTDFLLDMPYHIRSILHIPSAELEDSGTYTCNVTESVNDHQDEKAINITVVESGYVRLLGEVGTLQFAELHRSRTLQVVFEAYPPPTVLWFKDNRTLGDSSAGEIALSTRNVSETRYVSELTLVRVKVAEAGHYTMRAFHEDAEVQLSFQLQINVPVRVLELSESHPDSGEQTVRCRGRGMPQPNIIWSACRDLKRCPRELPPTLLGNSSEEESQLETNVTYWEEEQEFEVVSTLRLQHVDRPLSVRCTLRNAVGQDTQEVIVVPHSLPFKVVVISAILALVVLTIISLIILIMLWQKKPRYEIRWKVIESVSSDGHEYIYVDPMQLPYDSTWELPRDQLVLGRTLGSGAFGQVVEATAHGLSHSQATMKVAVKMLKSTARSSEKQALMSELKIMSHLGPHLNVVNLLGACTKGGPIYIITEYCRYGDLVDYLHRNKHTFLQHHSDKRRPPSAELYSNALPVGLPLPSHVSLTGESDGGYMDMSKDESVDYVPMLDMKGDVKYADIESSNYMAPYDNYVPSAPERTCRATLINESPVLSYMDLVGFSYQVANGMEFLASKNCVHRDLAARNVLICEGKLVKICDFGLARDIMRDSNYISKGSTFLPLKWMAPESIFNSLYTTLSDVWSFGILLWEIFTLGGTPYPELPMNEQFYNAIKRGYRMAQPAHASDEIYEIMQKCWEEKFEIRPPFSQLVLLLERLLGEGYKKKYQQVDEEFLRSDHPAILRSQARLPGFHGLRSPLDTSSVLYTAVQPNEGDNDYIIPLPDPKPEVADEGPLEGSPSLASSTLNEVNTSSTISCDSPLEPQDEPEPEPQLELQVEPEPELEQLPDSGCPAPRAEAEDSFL
# [28] = molecular target: T1, Tyrosine-protein kinase Lck; details: 1 uM
# Description: Inhibition of Lck (unknown origin) at 1 uM
# [29] = molecular target: Aurora kinase C (Homo sapiens) (UniProt Q9UQB9); assay: Inhibition of Aurora C (unknown origin) at 1 uM
# Aurora kinase C (Homo sapiens), sequence (Q9UQB9 whole entry): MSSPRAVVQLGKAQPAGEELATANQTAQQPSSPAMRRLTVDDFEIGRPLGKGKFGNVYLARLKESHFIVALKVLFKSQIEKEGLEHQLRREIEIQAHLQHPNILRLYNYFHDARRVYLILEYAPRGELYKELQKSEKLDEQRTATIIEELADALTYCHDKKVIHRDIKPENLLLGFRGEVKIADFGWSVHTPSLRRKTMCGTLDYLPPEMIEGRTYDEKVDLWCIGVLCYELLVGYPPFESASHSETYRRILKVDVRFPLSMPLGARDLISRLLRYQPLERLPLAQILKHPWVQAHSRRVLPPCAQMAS
# [30] = molecular target: Proto-oncogene tyrosine-protein kinase Src (Homo sapiens) (UniProt P12931); assay: Inhibition of c-Src (unknown origin) at 1 uM
# THP-1 [31] = assay: Induction of apoptosis in human THP1 cells assessed as caspase 8 activation after 24 hrs; format: functional, cell-based
# [32] = molecular target: Receptor tyrosine-protein kinase erbB-2 (Homo sapiens) (UniProt P04626); assay: Inhibition of ERBB2/Her2 (unknown origin) at 1 uM
# [33] = molecular target: Receptor-type tyrosine-protein kinase FLT3 (Homo sapiens) (UniProt P36888); assay: Inhibition of Aurora B/FLT3 in human MOLM13 cells assessed as inhibition of HH3 phosphorylation after 4 hrs by Dot-blot analysis; format: cell-based; details: MOLM-13
# Receptor-type tyrosine-protein kinase FLT3 (Homo sapiens), sequence (P36888 whole entry): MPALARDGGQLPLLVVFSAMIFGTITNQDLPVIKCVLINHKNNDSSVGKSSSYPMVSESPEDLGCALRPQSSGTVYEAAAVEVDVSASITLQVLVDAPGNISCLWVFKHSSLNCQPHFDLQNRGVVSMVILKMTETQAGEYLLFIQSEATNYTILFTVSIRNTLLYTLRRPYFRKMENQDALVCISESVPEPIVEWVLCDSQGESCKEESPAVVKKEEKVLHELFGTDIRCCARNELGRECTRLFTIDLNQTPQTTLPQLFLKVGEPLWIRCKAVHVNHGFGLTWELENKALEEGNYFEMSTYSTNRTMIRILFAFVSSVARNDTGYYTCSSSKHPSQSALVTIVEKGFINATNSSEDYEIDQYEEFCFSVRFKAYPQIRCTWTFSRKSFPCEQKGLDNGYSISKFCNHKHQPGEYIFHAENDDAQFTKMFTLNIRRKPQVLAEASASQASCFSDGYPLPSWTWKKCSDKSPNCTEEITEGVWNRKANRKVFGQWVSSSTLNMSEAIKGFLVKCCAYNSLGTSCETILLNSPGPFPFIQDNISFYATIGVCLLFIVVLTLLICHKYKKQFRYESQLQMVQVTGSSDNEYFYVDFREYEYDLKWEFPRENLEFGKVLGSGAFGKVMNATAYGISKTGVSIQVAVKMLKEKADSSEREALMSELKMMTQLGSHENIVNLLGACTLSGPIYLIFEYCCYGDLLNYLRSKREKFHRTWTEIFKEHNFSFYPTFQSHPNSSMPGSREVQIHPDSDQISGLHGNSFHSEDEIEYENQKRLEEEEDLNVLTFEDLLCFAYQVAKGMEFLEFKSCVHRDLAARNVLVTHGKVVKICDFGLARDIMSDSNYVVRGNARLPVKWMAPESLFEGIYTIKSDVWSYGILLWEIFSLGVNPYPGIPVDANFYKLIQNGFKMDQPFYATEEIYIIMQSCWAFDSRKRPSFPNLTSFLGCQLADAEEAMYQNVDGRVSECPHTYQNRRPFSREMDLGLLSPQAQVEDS
# [34] = molecular target: Vascular endothelial growth factor receptor 2 (Homo sapiens) (UniProt P35968); assay: Inhibition of KDR/VEGFR2 (unknown origin) at 1 uM
# [35] = molecular target: Serine/threonine-protein kinase Chk1 (Homo sapiens) (UniProt O14757); assay: Inhibition of CHK1 (unknown origin) at 1 uM
# [36] = molecular target: Serine/threonine-protein kinase PLK1 (Homo sapiens) (UniProt P53350); assay: Inhibition of Plk1 (unknown origin) at 1 uM
# [37] = molecular target: Tyrosine-protein kinase Lyn (Homo sapiens) (UniProt P07948); assay: Inhibition of Lyn (unknown origin) at 1 uM
# [38] = molecular target: Platelet-derived growth factor receptor alpha (Homo sapiens) (UniProt P16234); assay: Inhibition of PDGFRalpha (unknown origin) at 1 uM
# Platelet-derived growth factor receptor alpha (Homo sapiens), sequence (P16234 whole entry): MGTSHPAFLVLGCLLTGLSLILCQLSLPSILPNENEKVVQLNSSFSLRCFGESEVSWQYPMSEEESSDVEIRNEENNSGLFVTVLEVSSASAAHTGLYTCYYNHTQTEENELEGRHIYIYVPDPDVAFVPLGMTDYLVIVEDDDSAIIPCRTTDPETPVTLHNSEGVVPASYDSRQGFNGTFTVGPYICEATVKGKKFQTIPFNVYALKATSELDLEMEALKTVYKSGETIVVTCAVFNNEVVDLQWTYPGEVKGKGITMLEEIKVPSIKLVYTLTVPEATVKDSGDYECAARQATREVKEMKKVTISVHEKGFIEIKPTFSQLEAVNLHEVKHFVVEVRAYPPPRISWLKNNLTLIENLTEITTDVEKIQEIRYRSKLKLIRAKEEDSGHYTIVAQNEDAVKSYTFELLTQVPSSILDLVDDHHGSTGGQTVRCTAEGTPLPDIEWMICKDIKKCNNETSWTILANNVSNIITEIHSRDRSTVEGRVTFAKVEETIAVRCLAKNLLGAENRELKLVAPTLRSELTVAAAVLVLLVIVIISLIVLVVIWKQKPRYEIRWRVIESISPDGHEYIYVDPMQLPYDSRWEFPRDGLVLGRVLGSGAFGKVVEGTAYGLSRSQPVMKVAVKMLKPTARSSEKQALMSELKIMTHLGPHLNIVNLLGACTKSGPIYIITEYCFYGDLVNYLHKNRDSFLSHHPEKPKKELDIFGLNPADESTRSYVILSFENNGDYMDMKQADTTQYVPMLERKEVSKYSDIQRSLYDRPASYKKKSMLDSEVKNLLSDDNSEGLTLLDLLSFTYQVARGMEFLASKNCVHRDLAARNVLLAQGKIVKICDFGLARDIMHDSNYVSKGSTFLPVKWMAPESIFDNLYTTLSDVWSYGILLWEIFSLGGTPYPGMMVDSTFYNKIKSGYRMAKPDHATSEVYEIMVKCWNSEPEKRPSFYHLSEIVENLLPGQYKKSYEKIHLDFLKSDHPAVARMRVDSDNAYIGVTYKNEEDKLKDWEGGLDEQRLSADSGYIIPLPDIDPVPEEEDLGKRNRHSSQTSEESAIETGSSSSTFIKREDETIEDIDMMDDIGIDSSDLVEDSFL
# A549 = assay: Induction of apoptosis in human A549 cells assessed as caspase 8 activation after 24 hrs; format: functional, cell-based
# [39] = molecular target: Fibroblast growth factor receptor 1 (Homo sapiens) (UniProt P11362); assay: Inhibition of FGFR1 (unknown origin) at 1 uM
# [40] = molecular target: Dual specificity mitogen-activated protein kinase kinase 1 (Homo sapiens) (UniProt Q02750); assay: Inhibition of MEK1/MAP2K1 (unknown origin) at 1 uM
# [41] = molecular target: Insulin-like growth factor 1 receptor (Homo sapiens) (UniProt P08069); assay: Inhibition of IGF1R (unknown origin) at 1 uM
# [42] = molecular target: Tyrosine-protein kinase ABL1 (Homo sapiens) (UniProt P00519); assay: Inhibition of ABL1 (unknown origin) at 1 uM
# [43] = molecular target: Serine/threonine-protein kinase B-raf (Homo sapiens) (UniProt P15056); assay: Inhibition of BRAF (unknown origin) at 1 uM
# [44] = molecular target: Mitogen-activated protein kinase 9 (Homo sapiens) (UniProt P45984); assay: Inhibition of JNK2 (unknown origin) at 1 uM
# Mitogen-activated protein kinase 9 (Homo sapiens), sequence (P45984 whole entry, looked up): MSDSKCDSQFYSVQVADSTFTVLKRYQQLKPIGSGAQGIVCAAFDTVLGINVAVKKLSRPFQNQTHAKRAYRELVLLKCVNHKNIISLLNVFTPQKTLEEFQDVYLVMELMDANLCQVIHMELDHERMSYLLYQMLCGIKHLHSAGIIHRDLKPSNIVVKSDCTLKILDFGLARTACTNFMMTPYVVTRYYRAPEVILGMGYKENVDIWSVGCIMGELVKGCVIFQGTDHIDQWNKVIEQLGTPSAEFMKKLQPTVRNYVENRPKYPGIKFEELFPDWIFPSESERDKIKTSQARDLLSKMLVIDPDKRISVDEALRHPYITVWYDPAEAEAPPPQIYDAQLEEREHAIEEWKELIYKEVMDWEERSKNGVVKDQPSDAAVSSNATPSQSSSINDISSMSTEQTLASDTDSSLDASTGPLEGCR
# [45] = molecular target: Epidermal growth factor receptor (Homo sapiens) (UniProt P00533); assay: Inhibition of EGFR (unknown origin) at 1 uM
# [46] = molecular target: Serine/threonine-protein kinase mTOR (Homo sapiens) (UniProt P42345); assay: Inhibition of mTOR/FRAP1 (unknown origin) at 1 uM
# [47] = molecular target: Rho-associated protein kinase 1 (Homo sapiens) (UniProt Q13464); assay: Inhibition of ROCK1 (unknown origin) at 1 uM
# [48] = molecular target: Receptor-type tyrosine-protein kinase FLT3 (Homo sapiens) (UniProt P36888); assay: Inhibition of Aurora B/FLT3 in human MOLM13 cells assessed as inhibition of STAT5 phosphorylation after 4 hrs by Dot-blot analysis; format: cell-based; details: MOLM-13
# [49] = molecular target: Angiopoietin-1 receptor (Homo sapiens) (UniProt Q02763); assay: Inhibition of TEK/Tie-2 (unknown origin) at 1 uM
# [50] = molecular target: RAC-alpha serine/threonine-protein kinase (Homo sapiens) (UniProt P31749); assay: Inhibition of AKT1 (unknown origin) at 1 uM
# MOLM-13 [51] = assay: Induction of apoptosis in human MOLM13 cells assessed as increase in FasL level up to 20 uM; format: functional, cell-based
# MOLM-13 [52] = assay: Antitumor activity against human MOLM13 cells xenografted in ip dosed BALB/c AnN.Cg-Foxnlnu/CrlNarl mouse assessed as reduction in tumor growth treated once daily for 16 days; format: functional, organism-based
# [53] = molecular target: Hepatocyte growth factor receptor (Homo sapiens) (UniProt P08581); assay: Inhibition of c-Met (unknown origin) at 1 uM
# [54] = molecular target: Aurora kinase A (Homo sapiens) (UniProt O14965); assay: Inhibition of Aurora A (unknown origin) at 1 uM
# THP-1 [55] = assay: Induction of apoptosis in human THP1 cells assessed as caspase 3 activation after 24 hrs; format: functional, cell-based
# [56] = molecular target: Tyrosine-protein kinase JAK2 (Homo sapiens) (UniProt O60674); assay: Inhibition of JAK2 (unknown origin) at 1 uM
structure (smiles),measurement,setting,value
COc1ccc(C(=O)NC(=O)Nc2ccc3c(c2)NC(=O)/C3=C\c2[nH]c(C)c(C(=O)NCCN3CCCC3)c2C)c(F)c1 [listing 1 of 2 here],IC50,[1],> 10000 nM
same,Ratio,[2],0.36
same,IC50,MOLM-13 [3],0.7 nM
same,Cmax,[4],20.9 ng/mL
same,half-life,[5],27.6 h
same,selectivity ratio,[6],> 10
same,IC50,[7],9670 nM
same,IC50,[8],14 nM
same,AUC(0-t) at 24 h,[9],252 ng·h/mL
same,Activity,Vero,Non-toxic
same,half-life,[10],8.6 h
same,Papp,[11],1.78 ×10⁻⁶ cm/s
same,IC50,THP-1 [12],48.9 nM
same,AUC(0-t) at 24 h,[13],1960 ng·h/mL
same,IC50,Cytochrome P450 2D6,> 10000 nM
same,Vd,[14],22.2 L/kg
same,inhibition in vivo at 10 mg/kg,MOLM-13 [15],> 90%
same,Tmax,[16],1.7 h
same,IC50,Cytochrome P450 2C19,> 10000 nM
same,Cmax,[17],654 ng/mL
same,IC50,[18],2.8 nM
same,clearance,[19],8.33 mL/min/kg
same,bioavailability,[20],2.6%
same,Tmax,[21],6 min
same,IC50,Cytochrome P450 3A4,> 10000 nM
same,IC50,MV4-11,2.4 nM
same,IC50,Cytochrome P450 2C9,> 10000 nM
same,Activity,Mus musculus,Non-toxic
same,LD50 at 384 h,[22],> 20 mg/kg
same,inhibition in vivo at 10 mg/kg,MOLM-13 [23],95%
same,IC50,[24],2.3 nM
COc1ccc(C(=O)NC(=O)Nc2ccc3c(c2)NC(=O)/C3=C\c2[nH]c(C)c(C(=O)NCCN3CCCC3)c2C)c(F)c1 [listing 2 of 2 here],Activity,MOLM-13 [25],Dose-dependent effect
same,Activity,MOLM-13 [26],Dose-dependent effect
same,inhibition,[27],74%
same,inhibition,[28],97%
same,inhibition,[29],20%
same,inhibition,[30],20%
same,Activity,THP-1 [31],Dose-dependent effect
same,inhibition,[32],2%
same,inhibition,[33],Dose-dependent effect
same,inhibition,[34],20%
same,inhibition,[35],18%
same,inhibition,[36],13%
same,inhibition,[37],62%
same,inhibition,[38],57%
same,Activity,A549,Dose-dependent effect
same,inhibition,[39],23%
same,inhibition,[40],38%
same,inhibition,[41],10%
same,inhibition,[42],65%
same,inhibition,[43],inactive
same,inhibition,[44],32%
same,inhibition,[45],inactive
same,inhibition,[46],inactive
same,inhibition,[47],55%
same,inhibition,[48],Dose-dependent effect
same,inhibition,[49],32%
same,inhibition,[50],40%
same,Activity,MOLM-13 [51],Active
same,inhibition,MOLM-13 [52],Dose-dependent effect
same,inhibition,[53],40%
same,inhibition,[54],21%
same,Activity,THP-1 [55],Dose-dependent effect
same,inhibition,[56],inactive
